Literature values, collected in PubChem BioAssay AID1259409 (Chemical Carcinogenesis Research Information System (CCRIS), 2018).

Test system: rodent chemically induced tumor inhibition, incidence and multiplicity
Experiment: CCRIS tumor inhibitor studies

SMILES: NCCOc1c(Cl)cc(Cl)cc1-c1ccccc1
- tumour outcome (control, treated, inhibition, significance) (Carcinogen: ETHYL CARBAMATE, 51-79-6, Dose [Inhibitor]: 0, 0.04 MG/G PER DOSE IN 0.01 ML OF 0.9% SALINE ADMINISTERED IN 4 DOSES AT 3 HR INTERVALS BEGINNING 30 MIN PRIOR TO CARC, Route [Inhibitor]: INTRAPERITONEAL, Species: MOUSE, Strain/Sex: B6C3F1/MALE, Target Tissue: Type of Lesion: LIVER: HEPATOMA, Dose [Carcinogen]: 0.125 MG/G ONCE, Promoter: NONE USED): 21/21 (100%), 23/25 (92%), 8%, not calculated
- tumour outcome (control, treated, inhibition, significance) (Carcinogen: ETHYL CARBAMATE, 51-79-6, Dose [Inhibitor]: 0, 0.04 MG/G PER DOSE IN 0.01 ML OF 0.9% SALINE ADMINISTERED IN 4 DOSES AT 3 HR INTERVALS BEGINNING 30 MIN PRIOR TO CARC, Route [Inhibitor]: INTRAPERITONEAL, Species: MOUSE, Strain/Sex: B6C3F1/MALE, Target Tissue: Type of Lesion: LIVER: HEPATOMA, Dose [Carcinogen]: 0.25 MG/G ONCE, Promoter: NONE USED): 25/25 (100%), 24/24 (100%), 0%, not calculated
- tumour outcome (control, treated, inhibition, significance) (Carcinogen: ETHYL CARBAMATE, 51-79-6, Dose [Inhibitor]: 0, 0.04 MG/G PER DOSE IN 0.01 ML OF 0.9% SALINE ADMINISTERED IN 4 DOSES AT 3 HR INTERVALS BEGINNING 30 MIN PRIOR TO CARC, Route [Inhibitor]: INTRAPERITONEAL, Species: MOUSE, Strain/Sex: B6C3F1/MALE, Target Tissue: Type of Lesion: LIVER: HEPATOMA, Dose [Carcinogen]: 0.5 MG/G ONCE, Promoter: NONE USED): 22/22 (100%), 21/22 (95%), 5%, not calculated
- tumour outcome (control, treated, inhibition, significance) (Carcinogen: VINYL CARBAMATE, 15805-73-9, Dose [Inhibitor]: 0, 0.04 MG/G PER DOSE IN 0.01 ML OF 0.9% SALINE ADMINISTERED IN 4 DOSES AT 3 HR INTERVALS BEGINNING 30 MIN PRIOR TO CARC, Route [Inhibitor]: INTRAPERITONEAL, Species: MOUSE, Strain/Sex: B6C3F1/MALE, Target Tissue: Type of Lesion: LIVER: HEPATOMA, Dose [Carcinogen]: 0.003 MG/G ONCE, Promoter: NONE USED): 21/24 (88%), 25/25 (100%), -14%, not calculated
- tumour outcome (control, treated, inhibition, significance) (Carcinogen: VINYL CARBAMATE, 15805-73-9, Dose [Inhibitor]: 0, 0.04 MG/G PER DOSE IN 0.01 ML OF 0.9% SALINE ADMINISTERED IN 4 DOSES AT 3 HR INTERVALS BEGINNING 30 MIN PRIOR TO CARC, Route [Inhibitor]: INTRAPERITONEAL, Species: MOUSE, Strain/Sex: B6C3F1/MALE, Target Tissue: Type of Lesion: LIVER: HEPATOMA, Dose [Carcinogen]: 0.008 MG/G ONCE, Promoter: NONE USED): 26/26 (100%), 22/23 (96%), 4%, not calculated
- tumour outcome (control, treated, inhibition, significance) (Carcinogen: VINYL CARBAMATE, 15805-73-9, Dose [Inhibitor]: 0, 0.04 MG/G PER DOSE IN 0.01 ML OF 0.9% SALINE ADMINISTERED IN 4 DOSES AT 3 HR INTERVALS BEGINNING 30 MIN PRIOR TO CARC, Route [Inhibitor]: INTRAPERITONEAL, Species: MOUSE, Strain/Sex: B6C3F1/MALE, Target Tissue: Type of Lesion: LIVER: HEPATOMA, Dose [Carcinogen]: 0.025 MG/G ONCE, Promoter: NONE USED): 23/23 (100%), 24/25 (96%), 4%, not calculated

SMILES: CCCCC(CC)COC(=O)c1ccccc1C(=O)OCC(CC)CCCC (stereo not drawn)
- tumour outcome (control, treated, inhibition, significance) (Carcinogen: N-NITROSOBIS(2-HYDROXYPROPYL)AMINE, 53609-64-6, Dose [Inhibitor]: 0, 1.2% IN DIET FOR 30 WK BEGINNING POST CARCINOGEN TREATMENT (STUDY DURATION: 35 WK), Route [Inhibitor]: ORAL, Species: HAMSTER, Strain/Sex: SYRIAN/MALE, Target Tissue: Type of Lesion: PANCREAS: ADENOCARCINOMA, Dose [Carcinogen]: 500 MG/KG 1/WK FOR 5 WK, Promoter: NONE USED): 8/17 (47%), 7/19 (37%), 21%, not significant

SMILES: O=C(CCCN=C=S)c1cccnc1
- tumour outcome (control, treated, inhibition, significance) (Carcinogen: 4-(METHYLNITROSAMINO)-1-(3-PYRIDYL)-1-BUTANONE, 64091-91-4, Dose [Inhibitor]: 0, 5 UMOL 1/D FOR 4 D ADMINISTERED PRIOR TO CARCINOGEN DOSE (STUDY DURATION: 116 D), Route [Inhibitor]: GAVAGE, Species: MOUSE, Strain/Sex: STRAIN-A, Target Tissue: Type of Lesion: LUNG: ADENOMA, Dose [Carcinogen]: 10 UMOL IN SALINE ADMINISTERED 2 HR POST LAST AGENT DOSE, Promoter: NONE USED): 100%, 96%, 4%, not significant
- tumour outcome (control, treated, inhibition, significance) (Carcinogen: 4-(N-NITROSOMETHYLAMINO)-1-(3-PYRIDYL)-1-BUTANONE, 64091-91-4, Dose [Inhibitor]: 0, 5 UMOL/D FOR 4 CONSECUTIVE DAYS (STUDY DURATION: 16.5 WK), Route [Inhibitor]: GAVAGE, Species: MOUSE, Strain/Sex: STRAIN-A/FEMALE, Target Tissue: Type of Lesion: LUNG: ADENOMA, Dose [Carcinogen]: 10 UMOL ONCE 2 HR POST LAST AGENT DOSE, Promoter: NONE USED): 100%, 96%, 4%, not calculated

SMILES: CCCCCC(O)CC(=O)CCC1CCC(O)C(OC)C1 (stereo not drawn)
- tumour outcome (control, treated, inhibition, significance) (Carcinogen: AZOXYMETHANE, 25843-45-2, Dose [Inhibitor]: 0, 0.02% IN DIET IN WK 1-3 OF STUDY FOLLOWED BY BASAL DIET FOR DURATION OF STUDY (STUDY DURATION: 1 YR), Route [Inhibitor]: ORAL, Species: RAT, Strain/Sex: F344/MALE, Target Tissue: Type of Lesion: LARGE INTESTINE: ADENOCARCINOMA, Dose [Carcinogen]: 15 MG/KG BW 1/WK IN WK 1 AND 2 OF STUDY, Promoter: NONE USED): 13/27 (48%), 3/17 (18%), 63%, not calculated
- tumour outcome (control, treated, inhibition, significance) (Carcinogen: AZOXYMETHANE, 25843-45-2, Dose [Inhibitor]: 0, 0.02% IN DIET IN WK 1-3 OF STUDY FOLLOWED BY BASAL DIET FOR DURATION OF STUDY (STUDY DURATION: 1 YR), Route [Inhibitor]: ORAL, Species: RAT, Strain/Sex: F344/MALE, Target Tissue: Type of Lesion: LARGE INTESTINE: ADENOMA, Dose [Carcinogen]: 15 MG/KG BW 1/WK IN WK 1 AND 2 OF STUDY, Promoter: NONE USED): 6/27 (22%), 5/17 (29%), -32%, not calculated
- tumour outcome (control, treated, inhibition, significance) (Carcinogen: AZOXYMETHANE, 25843-45-2, Dose [Inhibitor]: 0, 0.02% IN DIET IN WK 1-3 OF STUDY FOLLOWED BY BASAL DIET FOR DURATION OF STUDY (STUDY DURATION: 1 YR), Route [Inhibitor]: ORAL, Species: RAT, Strain/Sex: F344/MALE, Target Tissue: Type of Lesion: SMALL INTESTINE: ADENOCARCINOMA, Dose [Carcinogen]: 15 MG/KG BW 1/WK IN WK 1 AND 2 OF STUDY, Promoter: NONE USED): 6/27 (22%), 0/17 (0%), 100%, not calculated

SMILES: CC(C)=CCC/C(C)=C/Cc1cc2ccc(=O)oc2cc1O
- tumour outcome (control, treated, inhibition, significance) (Carcinogen: 7,12-DIMETHYLBENZ[A]ANTHRACENE, 57-97-6, Dose [Inhibitor]: 0, 400 NMOL ONCE APPLIED 5 MIN PRIOR TO CARCINOGEN DOSE (STUDY DURATION: 25 WK), Route [Inhibitor]: DERMAL, Species: MOUSE, Strain/Sex: SENCAR, Target Tissue: Type of Lesion: SKIN: PAPILLOMA, Dose [Carcinogen]: 10 NMOL ONCE, Promoter: 12-O-TETRADECANOYLPHORBOL-13-ACETATE, 16561-29-8): 96%, 96%, 0%, not significant
- tumour outcome (control, treated, inhibition, significance) (Carcinogen: 7-12-DIMETHYLBENZ[A]ANTHRACENE, 57-97-6, Dose [Inhibitor]: 0, 1200 NMOL ONCE APPLIED 5 MIN PRIOR TO CARCINOGEN DOSE (STUDY DURATION: 25 WK), Route [Inhibitor]: DERMAL, Species: MOUSE, Strain/Sex: SENCAR, Target Tissue: Type of Lesion: SKIN: PAPILLOMA, Dose [Carcinogen]: 10 NMOL ONCE, Promoter: 12-O-TETRADECANOYLPHORBOL-13-ACETATE, 16561-29-8): 93%, 96%, -3%, not significant
- tumour outcome (control, treated, inhibition, significance) (Carcinogen: BENZO[A]PYRENE, 50-32-8, Dose [Inhibitor]: 0, 400 NMOL ONCE APPLIED 5 MIN PRIOR TO CARCINOGEN DOSE (STUDY DURATION: 25 WK), Route [Inhibitor]: DERMAL, Species: MOUSE, Strain/Sex: SENCAR, Target Tissue: Type of Lesion: SKIN: PAPILLOMA, Dose [Carcinogen]: 200 NMOL ONCE, Promoter: 12-O-TETRADECANOYLPHORBOL-13-ACETATE, 16561-29-8): 91%, 91%, 0%, not significant
- tumour outcome (control, treated, inhibition, significance) (Carcinogen: BENZO[A]PYRENE, 50-32-8, Dose [Inhibitor]: 0, 1200 NMOL ONCE APPLIED 5 MIN PRIOR TO CARCINOGEN DOSE (STUDY DURATION: 25 WK), Route [Inhibitor]: DERMAL, Species: MOUSE, Strain/Sex: SENCAR, Target Tissue: Type of Lesion: SKIN: PAPILLOMA, Dose [Carcinogen]: 200 NMOL ONCE, Promoter: 12-O-TETRADECANOYLPHORBOL-13-ACETATE, 16561-29-8): 92%, 93%, -1%, not significant

SMILES: CCC(C)C1NC(=O)C(C(C)=O)=C1O (stereo not drawn)
- tumour outcome (control, treated, inhibition, significance) (Carcinogen: 7,12-DIMETHYLBENZ[A]ANTHRACENE, 57-97-6, Dose [Inhibitor]: 0, 250 UG 3/WK APPLIED 30 MIN PRIOR TO EACH PROMOTER DOSE FOR 140 D (STUDY DURATION: 140 D), Route [Inhibitor]: DERMAL, Species: MOUSE, Strain/Sex: SWISS/FEMALE, Target Tissue: Type of Lesion: SKIN: TUMOR, Dose [Carcinogen]: 200 NMOL IN 100 µL ACETONE ONCE, Promoter: 12-O-TETRADECANOYLPHORBOL-13-ACETATE, 16561-29-8): 100%, 70%, 30%, not calculated

SMILES: CCC(C)SSC(C)CC (stereo not drawn)
- tumour outcome (control, treated, inhibition, significance) (Carcinogen: BENZO[A]PYENE, 50-32-8, Dose [Inhibitor]: 0.06 MMOL/G DIET DAILY FOR 6 WK CONCURRENT WITH CARCINOGEN TREATMENT FOLLOWED BY 14 WK ON STANDARD DIET (STUDY DURATION:, Route [Inhibitor]: ORAL, Species: MOUSE, Strain/Sex: ICR/FEMALE, Target Tissue: Type of Lesion: FORESTOMACH: NEOPLASM, Dose [Carcinogen]: 0.3 MG/G IN DIET DAILY FOR 6 WK, Promoter: NONE USED): 40%, 41%, -3%, not significant
